Measured values taken from the NIST ThermoML archive (doi:10.1021/je060247x).

Conditions: Liquid

CCCCn1cc[n+](C)c1.F[B-](F)(F)F [1-butyl-3-methylimidazolium tetrafluoroborate]
mass density [kg/m3]
Conditions | 100 kPa | 1000 kPa | 2000 kPa | 3000 kPa | 4000 kPa | 5000 kPa | 10000 kPa
293.15 K | 1206.9 | 1207.3 | 1207.7 | 1208.2 | 1208.7 | 1209.1 | 1211.3
303.15 K | 1198.6 | 1199.1 | 1199.6 | 1200.1 | 1200.7 | 1201.1 | 1203.5
313.15 K | 1190.8 | 1191.3 | 1191.8 | 1192.2 | 1192.7 | 1193.2 | 1195.5
323.15 K | 1183 | 1183.5 | 1184 | 1184.5 | 1185 | 1185.5 | 1187.8
333.15 K | 1175.8 | 1176.3 | 1176.9 | 1177.4 | 1177.9 | 1178.4 | 1181
343.15 K | 1168.4 | 1168.9 | 1169.3 | 1169.8 | 1170.3 | 1170.8 | 1173.1
353.15 K | 1161.3 | 1161.8 | 1162.4 | 1163 | 1163.5 | 1164.1 | 1166.6
363.15 K | 1154.7 | 1155.3 | 1155.8 | 1156.4 | 1156.9 | 1157.5 | 1160.1
373.15 K | 1148.2 | 1148.8 | 1149.3 | 1149.9 | 1150.4 | 1151 | 1153.6
383.15 K | 1142 | 1142.5 | 1143.1 | 1143.7 | 1144.3 | 1144.8 | 1147.6
393.15 K | 1136.1 | 1136.7 | 1137.3 | 1137.9 | 1138.4 | 1139 | 1141.9

CCCCn1cc[n+](C)c1.O=S(=O)([O-])C(F)(F)F [1-butyl-3-methylimidazolium trifluoromethanesulfonate]
mass density [kg/m3]
Conditions | 100 kPa | 1000 kPa | 2000 kPa | 3000 kPa | 4000 kPa | 5000 kPa | 10000 kPa
293.15 K | 1306.1 | 1306.6 | 1307.1 | 1307.7 | 1308.2 | 1308.8 | 1311.5
303.15 K | 1296.6 | 1297.1 | 1297.7 | 1298.3 | 1298.9 | 1299.5 | 1302.3
313.15 K | 1287.6 | 1288.1 | 1288.7 | 1289.3 | 1289.9 | 1290.5 | 1293.3
323.15 K | 1278.7 | 1279.3 | 1280 | 1280.7 | 1281.3 | 1282 | 1285
333.15 K | 1270.5 | 1271.1 | 1271.7 | 1272.4 | 1273.1 | 1273.8 | 1276.9
343.15 K | 1262.5 | 1263.1 | 1263.8 | 1264.5 | 1265.2 | 1265.8 | 1269.1
353.15 K | 1254 | 1254.7 | 1255.3 | 1256 | 1256.7 | 1257.4 | 1260.7
363.15 K | 1246.8 | 1247.5 | 1248.3 | 1249 | 1249.7 | 1250.4 | 1253.8
373.15 K | 1239.6 | 1240.3 | 1241.1 | 1241.8 | 1242.5 | 1243.2 | 1246.6
383.15 K | 1232.4 | 1233.1 | 1233.9 | 1234.6 | 1235.4 | 1236.1 | 1239.7
393.15 K | 1225.3 | 1226.1 | 1226.8 | 1227.6 | 1228.4 | 1229.1 | 1232.7

CCCCn1cc[n+](C)c1C.F[P-](F)(F)(F)(F)F [1-butyl-2,3-dimethylimidazolium hexafluorophosphate]
mass density [kg/m3]
Conditions | 313.15 K | 323.15 K | 333.15 K | 343.15 K | 353.15 K | 363.15 K | 373.15 K | 383.15 K | 393.15 K
100 kPa | 1339.6 | 1330.9 | 1321.9 | 1313.5 | 1305.4 | 1297.6 | 1290.6 | 1283.4 | 1276.1
1000 kPa | 1340 | 1331.4 | 1322.4 | 1314.1 | 1306 | 1298.2 | 1291.2 | 1284 | 1276.8
2000 kPa | 1340.7 | 1331.9 | 1323 | 1314.6 | 1306.6 | 1298.8 | 1291.9 | 1284.7 | 1277.4
3000 kPa | 1341.2 | 1332.5 | 1323.5 | 1315.2 | 1307.2 | 1299.4 | 1292.5 | 1285.3 | 1278.1
4000 kPa | 1341.6 | 1333.1 | 1324.1 | 1315.8 | 1307.8 | 1300.1 | 1293.2 | 1286 | 1278.8
5000 kPa | 1342.1 | 1333.6 | 1324.6 | 1316.3 | 1308.3 | 1300.7 | 1293.8 | 1286.6 | 1279.4
10000 kPa | 1344.6 | 1336.2 | 1327.2 | 1319.1 | 1311.1 | 1303.6 | 1296.7 | 1289.7 | 1282.6
